Experiment [1] deals with T1, α7-5HT3 Q79G (Homo sapiens, UniProt P36544, M226I/Q79G/T225I).
T1 construct: expressed in transfected cells; host or cells: HEK 293 cells (ATCC CRL-1573)
The experiment can be described thus: whole cell voltage clamp recordings (Iss, Ipeak). Format: cell-based, human/mouse.

For experiment [2], the target named is T2, α7-5HT3 Q79G L141S (Homo sapiens, UniProt P36544, L141S/M226I/Q79G/T225I).
T2 construct: expressed in transfected cells
The experiment can be described thus: whole cell voltage clamp recordings (Iss, Ipeak). Format: cell-based, human/mouse. The following applies: for EC50: α7 Q79G L141S, IPD 5HT3.

For experiment [3], the target named is T3, α7-5HT3 wt chimeric receptor (Homo sapiens, UniProt P36544, M226I/T225I).
T3 construct: expressed in transfected cells; host or cells: HEK 293 cells
T3 sequence (P36544 with tags, fused parts or gaps T225I/M226I): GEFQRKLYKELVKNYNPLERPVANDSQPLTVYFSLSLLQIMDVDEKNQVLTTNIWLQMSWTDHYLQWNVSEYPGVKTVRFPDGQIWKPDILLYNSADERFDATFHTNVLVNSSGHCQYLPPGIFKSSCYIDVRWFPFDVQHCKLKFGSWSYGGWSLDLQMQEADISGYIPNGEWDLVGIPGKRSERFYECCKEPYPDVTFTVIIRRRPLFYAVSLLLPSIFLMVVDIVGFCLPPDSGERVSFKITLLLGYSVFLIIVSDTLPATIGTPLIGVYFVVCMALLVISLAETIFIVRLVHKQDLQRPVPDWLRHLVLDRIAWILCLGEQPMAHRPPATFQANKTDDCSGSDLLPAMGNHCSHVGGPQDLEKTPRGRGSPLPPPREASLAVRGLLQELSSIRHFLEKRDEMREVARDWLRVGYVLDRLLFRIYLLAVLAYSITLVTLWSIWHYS
Nature of the experiment: fluorescence membrane potential (MP) assay, HEK 293 cells. The format is cell-based, human/mouse. The following applies: dose response curves, MP assay.

The target of experiment [4] is T2, α7-5HT3 Q79G L141S. The experiment is described as above. Format: cell-based, human/mouse. The following applies: IPD 5HT3, value (s.e.m.).
Experiment [5] deals with T1, α7-5HT3 Q79G. Described as above. Format: cell-based, human/mouse.
For experiment [6], the target named is T4, α7-5HT3 Q79G Q139G (Homo sapiens, UniProt P36544, M226I/Q139G/Q79G/T225I).
T4 construct: expressed in transfected cells
T4 sequence (P36544 with tags, fused parts or gaps Q79G/Q139G/T225I/M226I): as the sequence (P36544 with tags, fused parts or gaps T225I/M226I) above, with Q57G, Q117G counted along it
The experiment can be described thus: whole cell voltage clamp recordings (Iss, Ipeak). The format is cell-based, human/mouse.

The target of a further experiment is T5, α7-GlyR Q79G (Homo sapiens, UniProt P36544, Q79G).
T5 construct: expressed in transfected cells; host or cells: HEK 293 cells
T5 sequence (P36544 with tags, fused parts or gaps Q79G): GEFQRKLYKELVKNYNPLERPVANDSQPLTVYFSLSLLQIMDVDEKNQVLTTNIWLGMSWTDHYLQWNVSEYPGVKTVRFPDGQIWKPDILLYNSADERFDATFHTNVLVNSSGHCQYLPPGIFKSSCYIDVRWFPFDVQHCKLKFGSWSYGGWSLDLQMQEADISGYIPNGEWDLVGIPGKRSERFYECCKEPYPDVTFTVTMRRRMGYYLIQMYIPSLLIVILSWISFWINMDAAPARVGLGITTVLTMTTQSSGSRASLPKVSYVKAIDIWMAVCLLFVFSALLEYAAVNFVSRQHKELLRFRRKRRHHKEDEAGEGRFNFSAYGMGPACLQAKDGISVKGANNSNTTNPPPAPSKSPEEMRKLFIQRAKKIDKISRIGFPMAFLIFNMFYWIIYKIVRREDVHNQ
The experiment can be described thus: whole cell voltage clamp recordings (Iss, Ipeak). Particulars: IPD GlyR. The format is cell-based.

The target of a further experiment is T6, α7-5HT3 Q79G Q139M (Homo sapiens, UniProt P36544, M226I/Q139M/Q79G/T225I).
T6 construct: expressed in transfected cells
T6 sequence (P36544 with tags, fused parts or gaps Q79G/Q139M/T225I/M226I): as the sequence (P36544 with tags, fused parts or gaps T225I/M226I) above, with Q57G, Q117M counted along it
The experiment can be described thus: fluorescence membrane potential (MP) assay, HEK 293 cells. The format is cell-based, human/mouse.

In experiment [7] the target is T4, α7-5HT3 Q79G Q139G. The description is as above. Format: cell-based, human/mouse. The following applies: IPD 5HT3.
The mark [8] stands for this setting: peak current, IPD 5HT3, read-out: EC50-Ipeak.
The mark [9] stands for this setting: steady state current, IPD 5HT3, read-out: EC50-Iss.
[10] abbreviates: peak current, read-out: EC50-Ipeak.
[11] abbreviates: steady state current, read-out: EC50-Iss.

The structures appear in SMILES notation. Read-outs that look alike come from different tables or passages of the source.

T1 sequence (P36544 with tags, fused parts or gaps Q79G/T225I/M226I): as the sequence (P36544 with tags, fused parts or gaps T225I/M226I) above, with Q57G counted along it
T2 sequence (P36544 with tags, fused parts or gaps Q79G/L141S/T225I/M226I): as the sequence (P36544 with tags, fused parts or gaps T225I/M226I) above, with Q57G, L119S counted along it

Take `CCCCc1ccc(C(=O)N[C@@H]2CN3CCC2CC3)cc1` [Compound 9S, (S)-4-butyl-N-(quinuclidin-3-yl)benzamide]: the half-maximal effective concentration (EC50) was determined as 4.3 µM on α7-5HT3 Q79G [1] (setting [8]); 2.3 µM at α7-5HT3 Q79G [1] (setting [9]); 12.3 µM at α7-5HT3 Q79G L141S [2] (setting [10]); 4 µM on α7-5HT3 Q79G L141S [2] (setting [11]); 4.1 µM on α7-5HT3 Q79G L141S [4]. At α7-5HT3 Q79G L141S [2] (relative to α7-5HT3 Q79G), the “shift in the efficacy for α7-5HT3 Q79G L141S” value is given as “only slight shift”. Further, in [3], the “activity against α7-5HT3 wt (unmodified) receptor” value is listed as “did not induce activate”.
As to `O=C(N[C@@H]1CN2CCC1CC2)c1ccc(C(F)(F)F)cc1` [Compound 22S, (S)—N-(quinuclidin-3-yl)-4-(trifluoromethyl)benzamide], the “selectivity for Q79G relative to other mutant receptors” value on α7-5HT3 Q79G [5] (FIG. 5 dose response curves) is listed as “selective”. The concentration for a half-maximal effect (EC50) at α7-5HT3 Q79G [5] (read-out: EC50-MP, α7 Q79G, IPD 5HT3, value (s.e.m.)) turned out to be 0.8 µM; on α7-5HT3 Q79G Q139G [6] (setting [8]), 11.6 ± 3.6 µM; on α7-5HT3 Q79G Q139G [6] (setting [9]) it was 2.7 ± 1 µM; on α7-5HT3 Q79G [1] (setting [8]), 2.7 µM; on α7-5HT3 Q79G [1] (setting [9]), 0.4 µM; at α7-GlyR Q79G (setting [10]), 7.5 µM. Moreover, the concentration for a half-maximal effect (EC50) was 4.8 µM on α7-GlyR Q79G (setting [11]); 0.06 ± 0.04 µM at α7-5HT3 Q79G Q139M (α7 Q79G Q139M, IPD 5HT3, value (s.e.m.), read-out: EC50-MP); 3.9 µM on α7-5HT3 Q79G Q139G [7]. Also, the “activity against α7-5HT3 wt (unmodified) receptor” value in experiment [3] was “did not induce activate”. Besides, the “fold improvement in potency (EC50), α7-5HT3 Q79G Q139M relative to α7-5HT3 Q79G” value at α7-5HT3 Q79G Q139M (EC50MP) is recorded as 20 fold.

As usually defined, the EC50 is the concentration giving half of the maximal effect.

The record behind these values is US8435762B2, “Chimeric ligand-gated ion channels and methods of use thereof” (Howard Hughes Medical Institute, priority 2008, dated 2013).
